Assay results as given in paper PMC12748989 (Nature Communications, 2025).

Assays:
PBMC = settings: 12.5 µM

With `CC[C@H](C)[C@H](N)C(=O)N[C@@H](CC(N)=O)C(=O)N[C@@H](CC(C)C)C(=O)N[C@@H](CCCCN)C(=O)N[C@@H](CO)C(=O)N[C@@H](CC(C)C)C(=O)N[C@@H](C)C(=O)N[C@@H](C)C(=O)N[C@@H](CC(C)C)C(=O)N[C@@H](C)C(=O)N[C@@H](CCCCN)C(=O)N[C@@H](CCCCN)C(=O)N[C@H](C(=O)N[C@@H](CC(C)C)C(N)=O)[C@@H](C)CC` [S5] the “Average (percentage cell inhibition), Dmastoparan MDA-MB231 12.5uM” value (MDA-MB-231 cells) was 26.0666% and the “Average (percentage cell inhibition), Mastoparan PBMC” value (PBMC) was 9.929%.
In the case of `CC[C@H](C)[C@H](N)C(=O)N[C@@H](CC(N)=O)C(=O)N[C@@H](CC(C)C)C(=O)N[C@@H](CCCCN)C(=O)N[C@@H](C)C(=O)N[C@@H](CC(C)C)C(=O)N[C@@H](C)C(=O)N[C@H](C(=O)N[C@@H](CC(C)C)C(=O)N[C@@H](C)C(=O)N[C@@H](CCCCN)C(=O)N[C@@H](CCCCN)C(=O)N[C@H](C(=O)N[C@@H](CC(C)C)C(N)=O)[C@@H](C)CC)[C@@H](C)CC` [I8], the “Average (percentage cell inhibition), Dmastoparan MDA-MB231 12.5uM” value (MDA-MB-231 cells) is reported as 40.0855% and the “Average (percentage cell inhibition), Mastoparan PBMC” value (PBMC) is reported as 17.9616%.
In the case of `CC[C@H](C)[C@H](NC(=O)[C@H](CCCCN)NC(=O)[C@H](CCCCN)NC(=O)[C@H](C)NC(=O)[C@H](CC(C)C)NC(=O)[C@H](C)NC(=O)[C@H](C)NC(=O)[C@H](CC(C)C)NC(=O)[C@H](C)NC(=O)[C@H](CCCCN)NC(=O)[C@H](CC(C)C)NC(=O)[C@H](CC(N)=O)NC(=O)[C@H](C)N)C(=O)N[C@@H](CC(C)C)C(N)=O` [A1], the “Average (percentage cell inhibition), Dmastoparan MDA-MB231 12.5uM” value (MDA-MB-231 cells) is reported as 30.2333% and the “Average (percentage cell inhibition), Mastoparan PBMC” value (PBMC) is reported as 5.463%.
In the case of `CC[C@H](C)[C@H](N)C(=O)N[C@@H](CC(N)=O)C(=O)N[C@@H](CC(C)C)C(=O)N[C@@H](CCCCN)C(=O)N[C@@H](C)C(=O)N[C@@H](CC(C)C)C(=O)N[C@@H](C)C(=O)N[C@@H](C)C(=O)N[C@@H](CC(C)C)C(=O)N[C@@H](C)C(=O)N[C@@H](CCCCN)C(=O)N[C@@H](CCCCN)C(=O)N[C@@H](CCC(N)=O)C(=O)N[C@@H](CC(C)C)C(N)=O` [Q13], the “Average (percentage cell inhibition), Dmastoparan MDA-MB231 12.5uM” value (MDA-MB-231 cells) is reported as 9.2166% and the “Average (percentage cell inhibition), Mastoparan PBMC” value (PBMC) is reported as -1.132%.
With `CC[C@H](C)[C@H](N)C(=O)N[C@@H](CC(N)=O)C(=O)N[C@@H](CC(C)C)C(=O)N[C@@H](CCCCN)C(=O)N[C@@H](C)C(=O)N[C@@H](CC(C)C)C(=O)N[C@@H](C)C(=O)N[C@@H](C)C(=O)N[C@@H](CC(C)C)C(=O)N[C@@H](C)C(=O)N[C@@H](CCCCN)C(=O)N[C@@H](CCCCN)C(=O)N[C@H](C(=O)N[C@H](C(N)=O)[C@@H](C)CC)[C@@H](C)CC` [I14] the “Average (percentage cell inhibition), Dmastoparan MDA-MB231 12.5uM” value (MDA-MB-231 cells) was 33.7751% and the “Average (percentage cell inhibition), Mastoparan PBMC” value (PBMC) was 14.5337%.
In the case of `CC[C@H](C)[C@H](N)C(=O)N[C@@H](CC(N)=O)C(=O)N[C@@H](CCCNC(=N)N)C(=O)N[C@@H](CCCCN)C(=O)N[C@@H](C)C(=O)N[C@@H](CC(C)C)C(=O)N[C@@H](C)C(=O)N[C@@H](C)C(=O)N[C@@H](CC(C)C)C(=O)N[C@@H](C)C(=O)N[C@@H](CCCCN)C(=O)N[C@@H](CCCCN)C(=O)N[C@H](C(=O)N[C@@H](CC(C)C)C(N)=O)[C@@H](C)CC` [R3], the “Average (percentage cell inhibition), Dmastoparan MDA-MB231 12.5uM” value (MDA-MB-231 cells) is reported as 24.609% and the “Average (percentage cell inhibition), Mastoparan PBMC” value (PBMC) is reported as -2.846%.
For `CC[C@H](C)[C@H](N)C(=O)N[C@@H](CC(N)=O)C(=O)N[C@@H](CC(C)C)C(=O)N[C@@H](CCCCN)C(=O)N[C@@H](C)C(=O)N[C@@H](CC(C)C)C(=O)N[C@@H](C)C(=O)N[C@@H](C)C(=O)N[C@@H](CC(C)C)C(=O)N[C@@H](C)C(=O)N[C@@H](CCCCN)C(=O)N[C@@H](CCCCN)C(=O)N[C@H](C(=O)N[C@@H](Cc1c[nH]c2ccccc12)C(N)=O)[C@@H](C)CC` [W14], the “Average (percentage cell inhibition), Dmastoparan MDA-MB231 12.5uM” value (MDA-MB-231 cells) was 56.1495% and the “Average (percentage cell inhibition), Mastoparan PBMC” value (PBMC) was 13.9862%.
In the case of `CC[C@H](C)[C@H](N)C(=O)N[C@@H](CC(N)=O)C(=O)N[C@@H](CC(C)C)C(=O)N[C@@H](CCCCN)C(=O)N[C@@H](C)C(=O)N[C@@H](CC(C)C)C(=O)N1CCC[C@H]1C(=O)N[C@@H](C)C(=O)N[C@@H](CC(C)C)C(=O)N[C@@H](C)C(=O)N[C@@H](CCCCN)C(=O)N[C@@H](CCCCN)C(=O)N[C@H](C(=O)N[C@@H](CC(C)C)C(N)=O)[C@@H](C)CC` [P7], the “Average (percentage cell inhibition), Dmastoparan MDA-MB231 12.5uM” value (MDA-MB-231 cells) is reported as -0.6456% and the “Average (percentage cell inhibition), Mastoparan PBMC” value (PBMC) is reported as -9.322%.
With `CC[C@H](C)[C@H](N)C(=O)N[C@@H](CC(N)=O)C(=O)N[C@@H](CC(C)C)C(=O)NCC(=O)N[C@@H](C)C(=O)N[C@@H](CC(C)C)C(=O)N[C@@H](C)C(=O)N[C@@H](C)C(=O)N[C@@H](CC(C)C)C(=O)N[C@@H](C)C(=O)N[C@@H](CCCCN)C(=O)N[C@@H](CCCCN)C(=O)N[C@H](C(=O)N[C@@H](CC(C)C)C(N)=O)[C@@H](C)CC` [G4] the “Average (percentage cell inhibition), Dmastoparan MDA-MB231 12.5uM” value (MDA-MB-231 cells) was 39.0682% and the “Average (percentage cell inhibition), Mastoparan PBMC” value (PBMC) was 15.8704%.
In the case of `CC[C@H](C)[C@H](N)C(=O)N[C@@H](CC(N)=O)C(=O)N[C@@H](CCC(N)=O)C(=O)N[C@@H](CCCCN)C(=O)N[C@@H](C)C(=O)N[C@@H](CC(C)C)C(=O)N[C@@H](C)C(=O)N[C@@H](C)C(=O)N[C@@H](CC(C)C)C(=O)N[C@@H](C)C(=O)N[C@@H](CCCCN)C(=O)N[C@@H](CCCCN)C(=O)N[C@H](C(=O)N[C@@H](CC(C)C)C(N)=O)[C@@H](C)CC` [Q3], the “Average (percentage cell inhibition), Dmastoparan MDA-MB231 12.5uM” value (MDA-MB-231 cells) is reported as 20.3646% and the “Average (percentage cell inhibition), Mastoparan PBMC” value (PBMC) is reported as 10.4738%.
In the case of `CC[C@H](C)[C@H](N)C(=O)N[C@@H](CC(N)=O)C(=O)N[C@@H](CC(C)C)C(=O)N[C@@H](CCCCN)C(=O)N[C@@H](C)C(=O)N[C@@H](CC(C)C)C(=O)N[C@@H](C)C(=O)N[C@@H](C)C(=O)N[C@@H](CC(C)C)C(=O)N[C@@H](Cc1c[nH]c2ccccc12)C(=O)N[C@@H](CCCCN)C(=O)N[C@@H](CCCCN)C(=O)N[C@H](C(=O)N[C@@H](CC(C)C)C(N)=O)[C@@H](C)CC` [W10], the “Average (percentage cell inhibition), Dmastoparan MDA-MB231 12.5uM” value (MDA-MB-231 cells) is reported as 49.5675% and the “Average (percentage cell inhibition), Mastoparan PBMC” value (PBMC) is reported as 15.3863%.
For `CC[C@H](C)[C@H](N)C(=O)N[C@@H](CC(N)=O)C(=O)N[C@@H](CC(C)C)C(=O)N[C@@H](CCCCN)C(=O)N[C@@H](C)C(=O)N[C@@H](CC(C)C)C(=O)N[C@@H](C)C(=O)N[C@@H](C)C(=O)N[C@@H](CC(C)C)C(=O)N[C@@H](C)C(=O)N[C@@H](CO)C(=O)N[C@@H](CCCCN)C(=O)N[C@H](C(=O)N[C@@H](CC(C)C)C(N)=O)[C@@H](C)CC` [S11], the “Average (percentage cell inhibition), Dmastoparan MDA-MB231 12.5uM” value (MDA-MB-231 cells) was 28.2862% and the “Average (percentage cell inhibition), Mastoparan PBMC” value (PBMC) was 3.714%.
For `CC[C@H](C)[C@H](N)C(=O)N[C@@H](CC(N)=O)C(=O)N[C@@H](Cc1c[nH]cn1)C(=O)N[C@@H](CCCCN)C(=O)N[C@@H](C)C(=O)N[C@@H](CC(C)C)C(=O)N[C@@H](C)C(=O)N[C@@H](C)C(=O)N[C@@H](CC(C)C)C(=O)N[C@@H](C)C(=O)N[C@@H](CCCCN)C(=O)N[C@@H](CCCCN)C(=O)N[C@H](C(=O)N[C@@H](CC(C)C)C(N)=O)[C@@H](C)CC` [H3], the “Average (percentage cell inhibition), Dmastoparan MDA-MB231 12.5uM” value (MDA-MB-231 cells) was 10.8919% and the “Average (percentage cell inhibition), Mastoparan PBMC” value (PBMC) was -4.438%.
For `CC[C@H](C)[C@H](N)C(=O)N[C@@H](CC(N)=O)C(=O)N[C@@H](CC(C)C)C(=O)N[C@@H](CCCCN)C(=O)N[C@@H](C)C(=O)N[C@@H](Cc1c[nH]c2ccccc12)C(=O)N[C@@H](C)C(=O)N[C@@H](C)C(=O)N[C@@H](CC(C)C)C(=O)N[C@@H](C)C(=O)N[C@@H](CCCCN)C(=O)N[C@@H](CCCCN)C(=O)N[C@H](C(=O)N[C@@H](CC(C)C)C(N)=O)[C@@H](C)CC` [W6], the “Average (percentage cell inhibition), Dmastoparan MDA-MB231 12.5uM” value (MDA-MB-231 cells) was 42.8966% and the “Average (percentage cell inhibition), Mastoparan PBMC” value (PBMC) was 18.297%.
With `CC[C@H](C)[C@H](N)C(=O)N[C@@H](CC(N)=O)C(=O)N[C@@H](CC(C)C)C(=O)N[C@@H](CCCCN)C(=O)N[C@@H](C)C(=O)N[C@@H](CC(C)C)C(=O)N[C@@H](C)C(=O)N[C@@H](CCC(N)=O)C(=O)N[C@@H](CC(C)C)C(=O)N[C@@H](C)C(=O)N[C@@H](CCCCN)C(=O)N[C@@H](CCCCN)C(=O)N[C@H](C(=O)N[C@@H](CC(C)C)C(N)=O)[C@@H](C)CC` [Q8] the “Average (percentage cell inhibition), Dmastoparan MDA-MB231 12.5uM” value (MDA-MB-231 cells) was 46.0978% and the “Average (percentage cell inhibition), Mastoparan PBMC” value (PBMC) was 5.553%.
With `CC[C@H](C)[C@H](N)C(=O)N[C@@H](CC(N)=O)C(=O)N[C@@H](CC(C)C)C(=O)N[C@@H](CCCCN)C(=O)N[C@@H](C)C(=O)N[C@@H](CC(C)C)C(=O)N[C@@H](C)C(=O)N[C@@H](CCCNC(=N)N)C(=O)N[C@@H](CC(C)C)C(=O)N[C@@H](C)C(=O)N[C@@H](CCCCN)C(=O)N[C@@H](CCCCN)C(=O)N[C@H](C(=O)N[C@@H](CC(C)C)C(N)=O)[C@@H](C)CC` [R8] the “Average (percentage cell inhibition), Dmastoparan MDA-MB231 12.5uM” value (MDA-MB-231 cells) was 42.355% and the “Average (percentage cell inhibition), Mastoparan PBMC” value (PBMC) was 4.899%.
With `CC[C@H](C)[C@H](N)C(=O)N[C@@H](CC(N)=O)C(=O)N[C@@H](CC(C)C)C(=O)N[C@H](C(=O)N[C@@H](C)C(=O)N[C@@H](CC(C)C)C(=O)N[C@@H](C)C(=O)N[C@@H](C)C(=O)N[C@@H](CC(C)C)C(=O)N[C@@H](C)C(=O)N[C@@H](CCCCN)C(=O)N[C@@H](CCCCN)C(=O)N[C@H](C(=O)N[C@@H](CC(C)C)C(N)=O)[C@@H](C)CC)[C@@H](C)CC` [I4] the “Average (percentage cell inhibition), Dmastoparan MDA-MB231 12.5uM” value (MDA-MB-231 cells) was 30.9221% and the “Average (percentage cell inhibition), Mastoparan PBMC” value (PBMC) was 5.736%.
With `CC[C@H](C)[C@H](N)C(=O)N[C@@H](CC(N)=O)C(=O)N[C@@H](CC(C)C)C(=O)N[C@@H](CCCCN)C(=O)N[C@@H](C)C(=O)N[C@@H](CC(C)C)C(=O)N[C@@H](C)C(=O)N[C@@H](C)C(=O)N[C@@H](CC(C)C)C(=O)N[C@@H](C)C(=O)N[C@@H](CCC(N)=O)C(=O)N[C@@H](CCCCN)C(=O)N[C@H](C(=O)N[C@@H](CC(C)C)C(N)=O)[C@@H](C)CC` [Q11] the “Average (percentage cell inhibition), Dmastoparan MDA-MB231 12.5uM” value (MDA-MB-231 cells) was 41.2471% and the “Average (percentage cell inhibition), Mastoparan PBMC” value (PBMC) was 14.9552%.
`CC[C@H](C)[C@H](NC(=O)[C@H](CCCCN)NC(=O)[C@H](CCCCN)NC(=O)[C@H](C)NC(=O)[C@H](CC(C)C)NC(=O)[C@H](C)NC(=O)[C@H](C)NC(=O)[C@H](CC(C)C)NC(=O)[C@H](C)NC(=O)[C@H](CCCCN)NC(=O)[C@H](CC(C)C)NC(=O)[C@H](CC(N)=O)NC(=O)[C@@H](N)[C@@H](C)O)C(=O)N[C@@H](CC(C)C)C(N)=O` [T1] was tested, and the “Average (percentage cell inhibition), Dmastoparan MDA-MB231 12.5uM” value (MDA-MB-231 cells) was 37.2219% and the “Average (percentage cell inhibition), Mastoparan PBMC” value (PBMC) was 14.7113%.
